Laboratory results as given in PubChem BioAssay (NCI).
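How tested: cells in 96-well plates exposed to compound for 48 hours at five concentrations. Abbreviation: GI50, concentration required for 50% inhibition of growth. Definition used: TGI = concentration required for complete inhibition of growth.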

Columns and labels:
Test in all cases: inhibition of tumour cell growth, NCI panel, 48 h
SK-MEL-2 melanoma = system: SK-MEL-2 melanoma
HOP-92 NSCLC = system: HOP-92 NSCLC
DU-145 prostate = system: DU-145 prostate
COLO 205 colon = system: COLO 205 colon
SNB-19 CNS = system: SNB-19 CNS
MDA-MB-231 breast = system: MDA-MB-231 breast
K-562 leukemia = system: K-562 leukemia
EKVX NSCLC = system: EKVX NSCLC
IGROV1 ovarian = system: IGROV1 ovarian
A549 NSCLC = system: A549 NSCLC
OVCAR-8 ovarian = system: OVCAR-8 ovarian
UACC-257 melanoma = system: UACC-257 melanoma
HS 578T breast = system: HS 578T breast
TK-10 renal = system: TK-10 renal
NCI-H226 lung = system: NCI-H226 lung
OVCAR-4 ovarian = system: OVCAR-4 ovarian
RPMI-8226 leukemia = system: RPMI-8226 leukemia
HCC-2998 colon = system: HCC-2998 colon
SR leukemia = system: SR leukemia
MCF7 breast = system: MCF7 breast
MALME-3M melanoma = system: MALME-3M melanoma
CCRF-CEM leukemia = system: CCRF-CEM leukemia
HCT-15 colon = system: HCT-15 colon
NCI-H23 lung = system: NCI-H23 lung
LOX IMVI melanoma = system: LOX IMVI melanoma
NCI-H460 lung = system: NCI-H460 lung
SNB-75 CNS = system: SNB-75 CNS
HOP-62 NSCLC = system: HOP-62 NSCLC
RXF 393 renal = system: RXF 393 renal
OVCAR-3 ovarian = system: OVCAR-3 ovarian
NCI-H522 lung = system: NCI-H522 lung
HT29 colon = system: HT29 colon
SW-620 colon = system: SW-620 colon
SN12C renal = system: SN12C renal
T-47D breast = system: T-47D breast
A498 renal = system: A498 renal
HCT-116 colon = system: HCT-116 colon
UACC-62 melanoma = system: UACC-62 melanoma
MOLT-4 leukemia = system: MOLT-4 leukemia
SK-MEL-5 melanoma = system: SK-MEL-5 melanoma
786-0 renal = system: 786-0 renal
BT-549 breast = system: BT-549 breast
PC-3 prostate = system: PC-3 prostate
SF-295 CNS = system: SF-295 CNS
KM12 colon = system: KM12 colon
MDA-MB-435 = system: MDA-MB-435
SF-539 CNS = system: SF-539 CNS
ACHN renal = system: ACHN renal
SF-268 CNS = system: SF-268 CNS
UO-31 renal = system: UO-31 renal
M14 melanoma = system: M14 melanoma
SK-MEL-28 melanoma = system: SK-MEL-28 melanoma
NCI/ADR-RES ovarian = system: NCI/ADR-RES ovarian
CAKI-1 renal = system: CAKI-1 renal
U251 CNS = system: U251 CNS
OVCAR-5 ovarian = system: OVCAR-5 ovarian

For N#Cc1ccc2[nH]cc(Cc3c[nH]c4ccc(C#N)cc34)c2c1, the GI50 (SK-MEL-2 melanoma) was 9.63 µM, the TGI (SK-MEL-2 melanoma) was 21 µM and the GI50 (HOP-92 NSCLC) was 8.52 µM. The TGI (HOP-92 NSCLC) was 22.8 µM, the GI50 (DU-145 prostate) was 16.3 µM and the TGI (DU-145 prostate) was over 50 µM. The GI50 (COLO 205 colon) was 15.8 µM, the TGI (COLO 205 colon) was over 50 µM and the GI50 (SNB-19 CNS) was 17.2 µM. The TGI (SNB-19 CNS) was over 50 µM, the GI50 (MDA-MB-231 breast) was 10.3 µM and the TGI (MDA-MB-231 breast) was 25.1 µM. The GI50 (K-562 leukemia) was 14.7 µM, the TGI (K-562 leukemia) was over 50 µM and the GI50 (EKVX NSCLC) was 14.9 µM. For the same molecule, the TGI (EKVX NSCLC) was over 50 µM, the GI50 (IGROV1 ovarian) was 12.3 µM and the TGI (IGROV1 ovarian) was 35.7 µM. For the same molecule, the GI50 (A549 NSCLC) was 9.73 µM, the TGI (A549 NSCLC) was 24 µM and the GI50 (OVCAR-8 ovarian) was 10.2 µM. It also gave a TGI (OVCAR-8 ovarian) of 28.2 µM, a GI50 (UACC-257 melanoma) of 10.1 µM and a TGI (UACC-257 melanoma) of 23.4 µM. For the same molecule, the GI50 (HS 578T breast) was 11.4 µM, the TGI (HS 578T breast) was 25.7 µM and the GI50 (TK-10 renal) was 13.5 µM. For the same molecule, the TGI (TK-10 renal) was 33.5 µM, the GI50 (NCI-H226 lung) was 17.9 µM and the TGI (NCI-H226 lung) was over 50 µM. It also gave a GI50 (OVCAR-4 ovarian) of 18.5 µM, a TGI (OVCAR-4 ovarian) of over 50 µM and a GI50 (RPMI-8226 leukemia) of 13.9 µM. It also gave a TGI (RPMI-8226 leukemia) of 49.7 µM, a GI50 (HCC-2998 colon) of 9.77 µM and a TGI (HCC-2998 colon) of 18.6 µM. The GI50 (SR leukemia) was 7.99 µM, the TGI (SR leukemia) was 36.7 µM and the GI50 (MCF7 breast) was 15.2 µM. The TGI (MCF7 breast) was over 50 µM, the GI50 (MALME-3M melanoma) was 6.98 µM and the TGI (MALME-3M melanoma) was 21.1 µM. It also gave a GI50 (CCRF-CEM leukemia) of 12.8 µM, a TGI (CCRF-CEM leukemia) of 39.4 µM and a GI50 (HCT-15 colon) of 13.5 µM. For the same molecule, the TGI (HCT-15 colon) was 42.2 µM, the GI50 (NCI-H23 lung) was 15.2 µM and the TGI (NCI-H23 lung) was 35.4 µM. The GI50 (LOX IMVI melanoma) was 6.99 µM, the TGI (LOX IMVI melanoma) was 18.9 µM and the GI50 (NCI-H460 lung) was 9.16 µM. It also gave a TGI (NCI-H460 lung) of 23.5 µM, a GI50 (SNB-75 CNS) of 20.4 µM and a TGI (SNB-75 CNS) of over 50 µM. It also gave a GI50 (HOP-62 NSCLC) of 11.6 µM, a TGI (HOP-62 NSCLC) of 28.5 µM and a GI50 (RXF 393 renal) of 10.7 µM. The TGI (RXF 393 renal) was 34.9 µM, the GI50 (OVCAR-3 ovarian) was 16.7 µM and the TGI (OVCAR-3 ovarian) was 49 µM. The GI50 (NCI-H522 lung) was 7.45 µM, the TGI (NCI-H522 lung) was 17.4 µM and the GI50 (HT29 colon) was 18.4 µM. For the same molecule, the TGI (HT29 colon) was over 50 µM, the GI50 (SW-620 colon) was 17.8 µM and the TGI (SW-620 colon) was over 50 µM. For the same molecule, the GI50 (SN12C renal) was 17 µM, the TGI (SN12C renal) was over 50 µM and the GI50 (T-47D breast) was 10.6 µM. The TGI (T-47D breast) was 32.8 µM, the GI50 (A498 renal) was 10.1 µM and the TGI (A498 renal) was 22 µM. The GI50 (HCT-116 colon) was 10.9 µM, the TGI (HCT-116 colon) was 28.4 µM and the GI50 (UACC-62 melanoma) was 8.42 µM. It also gave a TGI (UACC-62 melanoma) of 20.1 µM, a GI50 (MOLT-4 leukemia) of 7.53 µM and a TGI (MOLT-4 leukemia) of 19.5 µM. It also gave a GI50 (SK-MEL-5 melanoma) of 8.7 µM, a TGI (SK-MEL-5 melanoma) of 17.7 µM and a GI50 (786-0 renal) of 13.4 µM. For the same molecule, the TGI (786-0 renal) was 38 µM, the GI50 (BT-549 breast) was 9.57 µM and the TGI (BT-549 breast) was 20.7 µM. For the same molecule, the GI50 (PC-3 prostate) was 9.86 µM, the TGI (PC-3 prostate) was 27.8 µM and the GI50 (SF-295 CNS) was 8.84 µM. It also gave a TGI (SF-295 CNS) of 22.4 µM, a GI50 (KM12 colon) of 9.88 µM and a TGI (KM12 colon) of 20.1 µM. It also gave a GI50 (MDA-MB-435) of 11.4 µM, a TGI (MDA-MB-435) of 24 µM and a GI50 (SF-539 CNS) of 8.64 µM. It also gave a TGI (SF-539 CNS) of 16.9 µM, a GI50 (ACHN renal) of 12.2 µM and a TGI (ACHN renal) of 35.5 µM. The GI50 (SF-268 CNS) was 11.5 µM, the TGI (SF-268 CNS) was 31.7 µM and the GI50 (UO-31 renal) was 8.64 µM. The TGI (UO-31 renal) was 20.3 µM, the GI50 (M14 melanoma) was 10.9 µM and the TGI (M14 melanoma) was 24.3 µM. The GI50 (SK-MEL-28 melanoma) was 17.4 µM, the TGI (SK-MEL-28 melanoma) was over 50 µM and the GI50 (NCI/ADR-RES ovarian) was 12.5 µM. For the same molecule, the TGI (NCI/ADR-RES ovarian) was 36.3 µM, the GI50 (CAKI-1 renal) was 8.92 µM and the TGI (CAKI-1 renal) was 22.1 µM. The GI50 (U251 CNS) was 15.7 µM, the TGI (U251 CNS) was 48.5 µM and the GI50 (OVCAR-5 ovarian) was 12.3 µM. The TGI (OVCAR-5 ovarian) was 29.8 µM.
